Source: US20240415801A1, “Methods and Compositions for Treating Fibroids” (Lundquist Institute for Biomedical Innovation at …, priority 2023, published 2024)

Tests used:
[1] = test system: leiomyoma smooth muscle cells (LSMC); assay: 3D spheroid culture of leiomyoma smooth muscle cells, qRT-PCR (Example 2); assay type: cell-based, human; conditions: 3D cultured LSMC, 5 μM, 24 h
Description: Leiomyoma smooth muscle cells (LSMC) were cultured in DMEM supplemented with 10% fetal bovine serum until reaching confluence with a change of media every 2-3 days. Cells at passages p1 to p3 were used for all experiments. Isolated LSMC were plated in 6-well plates (1.5×10^5 cells/well) which were coated with 0.5% agarose gel and incubated 48 hours for spheroid formation with size ranging from 50 μm to 250 μm in diameter (1). For blocking IκBα phosphorylation and nuclear translocation of NFκB, LSMC spheroids were treated with 5 μM of Bay 11-7082 (Cayman Chemical, Ann Arbor, Michigan) for 24 hours. […]
Total RNA was extracted from the xenografts using TRIzol (Thermo Fisher Scientific Inc., Waltham, MA). RNA concentration and integrity was determined using a Nanodrop 2000c spectrophotometer (Thermo Scientific, Wilmington, DE) and Agilent 2100 Bioanalyzer (Agilent Technologies, Santa Clara, CA) as previously described (7, 8). […] Quantitative RT-PCR was carried out using SYBR gene expression master mix (Applied Biosystems). […] The expression levels of selected genes were quantified using Invitrogen StepOne System with FBXW2 (F-box and WD repeat domain containing 2) used for normalization (9). All reactions were run in triplicate and relative mRNA expression was determined using the comparative cycle threshold method (2−ΔΔCq), as recommended by the supplier (Applied Biosystems). […]

[2] = test system: fibroid xenografts; assay: Histology and immunohistochemistry of xenografts (Example 2); assay type: in vivo, SCID/Beige mice; conditions: 5 mg/kg, 8 weeks
Text: After fixation with 4% paraformaldehyde and routine dehydration, a portion of xenograft samples were embedded in paraffin. To evaluate histologic characteristics, 5-μm-thick paraffin sections of xenografts were stained with hematoxylin and eosin (H-3502, Vector Laboratories, Inc.) and Masson's trichrome stain (HT15-1 KT, Sigma-Aldrich) according to the manufacturer's instructions.
For Immunohistochemistry, the xenografts were fixed with 4% paraformaldehyde in PBS, and subsequently transferred to PBS containing 30% sucrose (wt/vol) until equilibrated in cold (4° C.). After fixation, 5-μm-thick paraffin sections were treated three times with Histo-Clear™ (National Diagnostics, Atlanta, GA) for 5 min, and rehydrated by a sequential ethanol wash, and then incubated in target retrieval solution (Dako, Carpinteria, CA) in a microwave for 10 min in order to retrieve the antigens. For blocking, tissues were incubated for 10 minutes with 3% solution of H2O2 followed by incubation with PBS-5% normal goat serum-0.2% Triton X-100. Tissue sections were incubated with primary antibody rabbit anti-Ki67 (dilution 1:250, 27309-1-AP, Proteintech Group, Inc), rabbit anti-cleaved caspase-3 (dilution 1:50, #9664, Cell Signaling Technology), rabbit anti-CCND1 (dilution 1:50, #55506, Cell Signaling Technology) and mouse anti-E2F1 (dilution 1:50, sc-251, Santa Cruz Biotechnology, Inc.) overnight at 4° C. in a humidified chamber. The antigens were then visualized using biotinylated antibodies and streptavidin, conjugated with horseradish peroxidase. Control sections were incubated with the secondary antibody, with replacement of primary antibody with the dilution reagent (Dako). Diaminobenzidine (Dako) which served as the substrate. […] Immunostained sections were examined under a microscope (Olympus IX83; Olympus Surgical Technologies America) and five representative images of each slide were quantitatively analyzed with the use of Halo software (Indica Labs Inc.) and were averaged for comparative analysis between vehicle and […] treatment groups in a blinded fashion.

## Cc1ccc(S(=O)(=O)/C=C/C#N)cc1 [Bay 11-7082]
[1]
  expression of IL8, TGFB3, Col3A1, CDK2, CCND1, DNMT1 and DNMT3A: significant decrease
[2]
  cell proliferation: nuclei staining for Ki67, CCND1 and E2F1: reduced number of nuclei staining
  staining for collagen (Masson's trichrome, blue stain): significant decrease
  staining of cleaved caspase 3 (apoptosis): no significant change
